Results taken from doi:10.1101/836932v1 (biorxiv, 2019).

Molecular target: T1, MLLT3 (AF9) (Homo sapiens, UniProt P42568)
T1 sequence (P42568 1-138 limits assumed): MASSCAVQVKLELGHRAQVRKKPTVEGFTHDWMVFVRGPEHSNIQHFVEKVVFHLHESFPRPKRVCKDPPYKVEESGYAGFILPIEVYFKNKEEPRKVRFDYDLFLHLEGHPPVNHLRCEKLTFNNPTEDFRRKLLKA
Assay: AlphaScreen
Type: binding

IC50 [µM]	SMILES
33	O=C(NCc1ccc(CN2CCCC2)cc1)N1CCN(C(=O)c2cccs2)CC1 [compound 2, piperazine-1-carboxamide 2]
7.8	COc1ccc(CNC(=O)N2CCN(c3ccc(C(C)=O)cc3)CC2)cn1 [compound 1, piperazine-1-carboxamide 1]
> 100	CCN(CC)Cc1ccc(CNC(=O)N2CCN(c3ncccn3)CC2)cc1 [compound 3, piperazine-1-carboxamide 3]
